Assay results published in article PMC12948427 (The Journal of Clinical Investigation, 2025).
Several values for one entry are separate records, joined by “and”; a condition that tells them apart may be missing. Equal values may be shown once. Read-outs that look alike come from different tables or passages of the source.

Legend:
HCoV-HKU1 VLP = assay type: cell-based
MHV [1] = experiment: TEM of MHV-infected 17Cl-1 cells (virions, DMVs); assay type: cell-based, mouse hepatitis virus (MHV)
Procedure: WT or Hgs-KO 17Cl-1 cells were grown on ACLAR films and infected with MHV. At 24 hpi the cells were rinsed with PBS and then fixed with 2.5% glutaraldehyde in PBS overnight. The fixed cells were rinsed with 0.1 M PB 2 times and then double-distilled water 2 times, each time for 6 minutes. They were submerged in an aqueous solution containing 1% osmium tetraoxide and 1.5% potassium ferricyanide for 1.5 hours and then rinsed with double-distilled water 3 times, each time for 6 minutes. The samples underwent a dehydration process in which the solution submerging the samples was sequentially replaced by 30%, 50%, 70%, 80%, 90%, 100%, 100%, and 100% ethanol solutions, with each solution submerging the sample for 6 minutes. The samples were then infiltrated sequentially with 100% acetone for 6 minutes 2 times, 3:1 acetone/EMbed 812 resin for 1 hour, 1:1 acetone/EMbed 812 resin for 2 hours, 1:3 acetone/EMbed 812 resin for 3 hours, and 100% EMbed 812 resin for 12 hours 2 times. The samples were embedded in EMbed 812 resin and underwent solidification at 45°C for 12 hours and then 60°C for 48 hours. Sectioning was performed with a Leica EM UC6 ultramicrotome. The sections were stained with 2% uranyl acetate for 15 minutes and 1% lead citrate for 5 minutes. Electron micrographs were acquired with an FEI Tecnai Spirit 120 kV transmission electron microscope operating at 100 kV accelerating voltage.

SARS-CoV-2 wild-type = experiment: microbe, parasite or virus in culture; assay type: cell-based; details: Severe acute respiratory syndrome coronavirus 2, 24 h, read-out: EC50 (IFA)
MHV [2] = assay type: cell-based, mouse hepatitis virus (MHV); details: for Inhibition, combination matrix (Figure S12C): Molnupiravir 0 uM; for Inhibition, combination matrix (Figure S12D): nirmatrelvir 0 uM
[3] = target: hHGS 1-390-6 × HIS protein (Homo sapiens, UniProt O14964); experiment: biochemical
SARS-CoV-2 M protein = assay type: cell-based
HCoV-OC43 = experiment: Infection of ALI-cultured primary HBEs, HCoV-OC43; assay type: cell-based
Procedure: (§1) Primary HBEs at passage 3 or earlier were seeded at a density of 40,000 cells per well in Transwell inserts (Costar 6.5 mm Transwell, 0.4 μm Pore Polyester Membrane Inserts, catalog 3470) for expansion culture. The cells were cultured in expansion medium (PneumaCult-Ex Plus Medium, catalog 05040) until tight junctions were formed. Once tight junctions were established, the expansion medium in the upper chamber was discarded, and the medium in the lower chamber was replaced with ALI differentiation medium (PneumaCult-ALI Medium, catalog 05001). Cells were maintained under ALI conditions, with the medium being changed every 2 days. The differentiation process was carried out for 21 days, during which cell morphology and differentiation status were monitored. The fully differentiated cells were infected with HCoV-OC43, HCoV-229E, HCoV-NL63, or SARS-CoV-2 (MOI = 1), and fresh medium was changed 1 hour postinfection. Specific peptide was added into the medium every 24 hours. At 96 hours postinfection, cells in Transwell inserts were washed with 140 μL PBS per insert, and the wash fluid was collected to extract virus RNA followed by RT-qPCR. […] The fluorescence was measured using ImageJ (NIH).

MHV [4] = system: MHV; parameters: species or system C57BL/6 mice; details: mouse, in vivo
HCoV-229E = experiment: Infection of ALI-cultured primary HBEs, HCoV-229E; assay type: cell-based
Procedure: as §1

[5] = TEM, RTB-treated versus DMSO, sheet does not name what is scored

Chain of hHGS 1-390-6 × HIS protein (O14964 1-390): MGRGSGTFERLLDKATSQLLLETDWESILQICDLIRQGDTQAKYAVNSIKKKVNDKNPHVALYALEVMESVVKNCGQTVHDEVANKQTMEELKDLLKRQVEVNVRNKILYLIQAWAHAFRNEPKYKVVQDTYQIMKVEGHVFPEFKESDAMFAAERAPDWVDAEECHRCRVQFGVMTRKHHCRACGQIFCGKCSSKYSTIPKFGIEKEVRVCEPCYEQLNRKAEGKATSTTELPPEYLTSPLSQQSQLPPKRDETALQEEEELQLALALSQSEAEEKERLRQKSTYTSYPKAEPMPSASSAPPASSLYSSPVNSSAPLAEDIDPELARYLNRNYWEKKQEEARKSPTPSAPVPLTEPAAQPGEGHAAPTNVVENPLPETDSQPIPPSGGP

Q: With `CCCC(=O)OC[C@@H](OC(=O)CCC)[C@@H](OC(=O)CCC)[C@H](Cn1c2nc(=O)[nH]c(=O)c-2nc2cc(C)c(C)cc21)OC(=O)CCC` [RTB, riboflavin tetrabutyrate] as the compound, how does the “VLPs' release” value (HCoV-HKU1 VLP) read?
A: The value was “concentration-dependent inhibition”.

Q: What about the “DMVs, the replication organelles (TEM)” value (MHV [1]; 25 μM, MHV-infected 17Cl-1, hpi = 24 h) of the same compound?
A: The value was “not significantly changed”.

Q: What about the “intracellular mature virions (TEM)” value (MHV [1]; 25 μM, MHV-infected 17Cl-1, hpi = 24 h, compared with DMSO) of the same compound?
A: The value was “significantly decreased”.

Q: And the “Negative (count, Figure 7G)” value (MHV [1]; RTB-treated, DMSO: 19)?
A: Its value is 2.

Q: What about the “Positive (count, Figure 7G)” value (MHV [1]; RTB-treated, DMSO: 41) of the same compound?
A: The value was 58.

Q: What about the “Negative (number of cells counted, Figure 7H)” value (MHV [1]; [5]) of the same compound?
A: The value was 37.

Q: And the “Positive (number of cells counted, Figure 7H)” value (MHV [1]; [5])?
A: The value was 23.

Q: What about the EC50 (SARS-CoV-2 wild-type) of the same compound?
A: The EC50 was 14.8 µM.

Q: And the “Inhibition, combination matrix (Figure S12C)” value (shortened to “Inhibition … (Figure S12C)”) (MHV [2]; RTB 0.01 uM)?
A: The value was -3.196.

Q: And the “Inhibition, combination matrix (Figure S12D)” value (“Inhibition … (Figure S12D)” for short) (MHV [2]; RTB 0.01 uM)?
A: Its value is 0.02357.

Q: And the “Inhibition … (Figure S12C)” value (MHV [2]; RTB 0.03 uM)?
A: The value was 0.4191.

Q: And the “Inhibition … (Figure S12D)” value (MHV [2]; RTB 0.03 uM)?
A: The value was 0.6847.

Q: And the “Inhibition … (Figure S12C)” value (MHV [2]; RTB 0.1 uM)?
A: The value was 5.187.

Q: And the “Inhibition … (Figure S12D)” value (MHV [2]; RTB 0.1 uM)?
A: Its value is 4.267.

Q: What about the “Inhibition … (Figure S12C)” value (MHV [2]; RTB 0.3 uM) of the same compound?
A: The value was 0.1333.

Q: What about the “Inhibition … (Figure S12D)” value (MHV [2]; RTB 0.3 uM) of the same compound?
A: Its value is 7.699.

Q: And the “Inhibition … (Figure S12C)” value (MHV [2]; RTB 1 uM)?
A: Its value is 5.1.

Q: And the “Inhibition … (Figure S12D)” value (MHV [2]; RTB 1 uM)?
A: Its value is 9.0154.

Q: What about the “Inhibition … (Figure S12C)” value (MHV [2]; RTB 3 uM) of the same compound?
A: The value was 12.0762.

Q: What about the “Inhibition … (Figure S12D)” value (MHV [2]; RTB 3 uM) of the same compound?
A: Its value is 25.2258.

Q: And the “Inhibition … (Figure S12C)” value (MHV [2]; RTB 10 uM)?
A: Its value is 64.6863.

Q: What about the “Inhibition … (Figure S12D)” value (MHV [2]; RTB 10 uM) of the same compound?
A: Its value is 39.9859.

Q: And the “Inhibition … (Figure S12C)” value (MHV [2]; RTB 25 uM)?
A: The value was 94.0563.

Q: And the “Inhibition … (Figure S12D)” value (MHV [2]; RTB 25 uM)?
A: Its value is 93.5156.

Q: What about the “combination effect in vitro” value (MHV [2]; combined with molnupiravir) of the same compound?
A: The value was “additive effects”.

Q: What about the “combination effect in vitro” value (MHV [2]; combined with nirmatrelvir) of the same compound?
A: The value was “additive effects”.

Q: What about the Kd [3] of the same compound?
A: Its Kd is 4.82 µM.

Q: What about the “cell viability, Figure S9C” value (17Cl-1 cells; concentration 100) of the same compound?
A: The value was 97.7719 and 100.641 and 97.299.

Q: And the “cell viability, Figure S9C” value (17Cl-1 cells; concentration 200)?
A: The value was 98.9701 and 100.61 and 98.3395.

Q: What about the “cell viability, Figure S9C” value (17Cl-1 cells; concentration 500) of the same compound?
A: The value was 100.294 and 99.5691 and 98.0557.

Q: What about the “cell viability, Figure S9C” value (17Cl-1 cells; concentration 1000) of the same compound?
A: Its value is 100.137 and 99.6952 and 100.704.

Q: And the “cell viability, Figure S9C” value (17Cl-1 cells; concentration 2000)?
A: Its value is 101.366 and 100.294 and 100.61.

Q: And the “cell viability, Figure S9C” value (17Cl-1 cells; concentration 5000)?
A: The value was 101.555 and 101.524 and 100.673.

Q: What about the “cell viability, Figure S9C” value (17Cl-1 cells; concentration 10000) of the same compound?
A: Its value is 99.979 and 101.24 and 100.294.

Q: What about the “cell viability, Figure S9C” value (17Cl-1 cells; concentration 20000) of the same compound?
A: Its value is 99.506 and 99.1907 and 98.4025.

Q: What about the “Colocalization of M with Sec61b (Manders' coefficient)” value (SARS-CoV-2 M protein) of the same compound?
A: The value was 0.92 and 0.994 and 0.992.

Q: What about the M protein localization (SARS-CoV-2 M protein) of the same compound?
A: The M protein localization was “induced M retention in the ER”.

Q: What about the “Sec61b colocalization coefficient (Figure 7I)” value (SARS-CoV-2 M protein) of the same compound?
A: Its value is 0.867 and 0.94 and 0.917.

Q: What about the “extracellular viral gRNA levels (RT-qPCR)” value (HCoV-OC43; Fig 5I, HCoV-OC43 MOI = 1, ALI-cultured HBEs, 96 h, RTB dose 5 (unit not given)) of the same compound?
A: Its value is 24 and 18 and 15.

Q: And the “inhibition of infection in ALI cultures of HBEs” value (HCoV-OC43; HCoV-OC43)?
A: The value was “significant, dose-dependent inhibition”.

Q: And the pulmonary viral titers (MHV [4])?
A: The pulmonary viral titers was “lowered pulmonary viral titers”.

Q: And the “viral gRNA” value (MHV [4])?
A: The value was “significantly reduced viral gRNA”.

Q: What about the virus-induced lung injury (MHV [4]) of the same compound?
A: The virus-induced lung injury was “markedly attenuated virus-induced lung injury”.

Q: What about the “cell viability, Figure S9M” value (Vero E6 cells; concentration 100) of the same compound?
A: The value was 90.9619 and 91.4921 and 91.5678.

Q: What about the “cell viability, Figure S9M” value (Vero E6 cells; concentration 200) of the same compound?
A: Its value is 83.3123 and 82.1005 and 89.9015.

Q: And the “cell viability, Figure S9M” value (Vero E6 cells; concentration 500)?
A: Its value is 91.4921 and 86.1146 and 87.6294.

Q: What about the “cell viability, Figure S9M” value (Vero E6 cells; concentration 1000) of the same compound?
A: Its value is 92.9311 and 88.614 and 83.4638.

Q: And the “cell viability, Figure S9M” value (Vero E6 cells; concentration 2000)?
A: Its value is 97.5511 and 94.5216 and 90.4317.

Q: What about the “cell viability, Figure S9M” value (Vero E6 cells; concentration 5000) of the same compound?
A: The value was 93.6885 and 92.1737 and 93.0068.

Q: And the “cell viability, Figure S9M” value (Vero E6 cells; concentration 10000)?
A: The value was 96.718 and 96.0363 and 91.6435.

Q: And the “cell viability, Figure S9M” value (Vero E6 cells; concentration 20000)?
A: Its value is 91.6435 and 99.3688 and 98.3085.

Q: And the “extracellular viral gRNA levels (RT-qPCR)” value (HCoV-229E; Fig 5H, HCoV-229E MOI = 1, ALI-cultured HBEs, 96 h, RTB dose 5 (unit not given))?
A: The value was 7 and 6 and 8.

Q: And the “inhibition of infection in ALI cultures of HBEs” value (HCoV-229E; HCoV-229E)?
A: Its value is “significant, dose-dependent inhibition”.
